According to patent US20160067246A1, “USE OF PHOSPHODIESTERASE 5A INHIBITORS FOR THE TREATMENT OF MUSCULAR DYSTROPHY” (CEDARS-SINAI MEDICAL CENTER, priority 2013, published 2016):

Columns and labels:
Format in all cases: in vivo, human
[1] = tested on: boys with Duchenne muscular dystrophy (DMD); assay: Functional sympatholysis (LBNP, NIR spectroscopy, rest vs handgrip) with PDE5 inhibition in DMD; details: for effect of chronic background medication on functional sympatholysis / functional ischemia in DMD: boys with DMD on chronic glucocorticoid or prophylactic cardiac treatment; for LBNP-induced ΔHbO2+MbO2 (% TLS) at rest / LBNP-induced ΔHbO2+MbO2 (% TLS) during handgrip: DMD, analysis using all 12 boys
Procedure: Forearm muscle oxygenation was measured with near-infrared (NIR) spectroscopy, as previously described.^4B Briefly, optodes were placed over the belly of the flexor digitorum profundus, the main muscle recruited during handgrip. The optodes were housed in a customized flexible rubber casing, ensuring a fixed and invariant position of the optodes relative to each other, and was secured to the skin with adhesive. The optodes were covered with an optically dense, black vinyl sheet, to minimize interference from external light or loss of NIR transmitted light. The forearm was wrapped with an elastic bandage to minimize movement of the optodes.
Before each experiment, absorption and scattering coefficients were calibrated against an external standard. After each experiment, a cuff was inflated on the upper arm to supra-systolic pressure of 200 mmHg to establish the total labile signal (TLS, the difference between the baseline and nadir in muscle tissue oxygenation). Changes in forearm tissue oxygenation were expressed as a percentage of TLS.
Handgrip exercise was performed with a dynamometer (Smedley Hand Dynamometer modified by Stoelting). To determine maximal voluntary contraction (MVC), each subject was asked to grip the dynamometer as hard as possible. […] Subjects performed intermittent isometric handgrip (20 handgrips per minute, 50% duty cycle) at 20% MVC for 7 minutes.
The subjects lower body was enclosed in a negative pressure chamber to the level of the iliac crest as previously described.^9B The pressure of the chamber was measured by a Statham transducer (Gould Inc.). Lower body negative pressure (LBNP) at −20 mmHg simulates mild orthostatic stress (that is, transition from the supine to the seated position). This technique mainly unloads the cardiopulmonary baroreceptors, producing highly reproducible reflex increases in sympathetic vasoconstrictor drive to the skeletal muscle vasculature without changing systemic blood pressure.^9B
The subjects' lower body was enclosed in a negative pressure chamber to the level of the iliac crest as previously described. The pressure in the chamber was measured by a Statham transducer (Gould Inc.). Lower body negative pressure (LBNP) at −20 to −30 mmHg simulates mild orthostatic stress caused by transition from the supine to the seated position. This technique mainly unloads the low-pressure cardiopulmonary baroreceptors, producing highly reproducible reflex increases in sympathetic vasoconstrictor drive to the skeletal muscle vasculature without changing systemic blood pressure. To measure exercise-induced attenuation of reflex vasoconstriction (i.e., functional sympatholysis), the LBNP was (i) applied at rest, and then (ii) superimposed on mild rhythmic handgrip at 20% MVC. Reflex vasoconstriction was measured as the LBNP-induced decrease in forearm muscle oxygenation by NIR spectroscopy. Using the pressure inside the LBNP chamber as a trigger, the Powerlab software was programed to mean the HbO2+MbO2 signal for 20 seconds before the onset of LBNP and for 20 seconds before the offset of LBNP; the difference between these mean values was taken as the LBNP-induced change in forearm muscle tissue oxygenation (20). Blood pressure, heart rate, and handgrip force were also recorded in response to 2 minutes of LBNP applied at rest and during the third to fifth minutes of the 7-minute exercise protocol.
Patients received 0.5 mg/kg of oral sildenafil or tadalafil on day 1, followed by 1.0 mg/kg of sildenafil or tadalafil on day 2. Patients then crossed over 2 weeks later for the opposite drug. Experiments were performed 1 hour (sildenafil) or 3 hours (tadalafil) after oral treatment to match the experiment with the peak blood level. Patients were queried about potential side-effects throughout the study visit. […]

[2] = tested on: boys with Duchenne muscular dystrophy (DMD); assay: Exercise-induced hyperemia: brachial artery blood flow by Doppler ultrasound and hemodynamics, rest and post handgrip; parameters: key to BA velocity: mean blood velocity in cm/s; Heart rate: unit not given here
Procedure: Subjects were studied in the supine position. Heart rate was measured continuously by electrocardiography, and blood pressure measured by automated oscillometric sphygomanometry using a child's cuff ([…] Monitor 300 Series). Brachial artery mean blood velocity (MBV) was measured from the exercising arm using pulsed-Doppler ultrasonography (Siemens iE33). Data were acquired continuously with a 9-MHz probe with a 60° angle of insonation, placed on the skin surface distal to the axilla. The ultrasound gate was optimized to ensure complete insonation of the entire vessel cross-section with constant intensity. The Doppler audio signal was converted to a real-time flow velocity signal using a validated Doppler audio converter,^8B and recorded using a PowerLab data acquisition system (ADInstruments, CO). Brachial artery diameter was measured by B-mode imaging in triplicate at rest. […] Brachial artery blood flow was calculated as MBV (cm/s)·πr^2·60, where r is radius of the brachial artery. […] exercise was performed with a dynamometer ([…] Dynamometer modified by Stoelting). To determine maximal voluntary contraction (MVC), each subject was asked to grip the dynamometer as hard as possible. […] Vascular conductance was calculated as forearm blood flow divided by mean arterial pressure. […] Patients then crossed over 2 weeks later for the opposite drug. […] Patients were queried about potential side-effects throughout the study visit. Baseline characteristics of patients and controls were compared using Student's t test. Exercise-induced attenuation of reflex vasoconstriction (functional sympatholysis) was assessed by comparing the LBNP-induced AHbO2+MbO2 (% TLS) at rest versus the LBNP-induced decrease in ΔHbO2+MbO2 during handgrip. Group differences in ΔHbO2+MbO2 were assessed using a Student's t test. The drug treatment effect on LBNP-induced Δ·HbO2+MbO2 (% TLS) at rest versus the LBNP-induced decrease in ΔHbO2+MbO2 during handgrip was compared to baseline for each patient using a Student's t test. The group difference in the % Δ in brachial artery blood flow was assessed using a student's t test. The drug treatment effect on the % Δ in brachial artery blood flow was compared using a student's t test. All analyses were performed in SigmaPlot. Data are expressed as mean±SEM, unless otherwise specified.

[3] = Pharmacokinetic study and drug blood levels in boys with DMD; details: male, human, in vivo
Procedure: Serum blood samples for pharmacokinetic determinations were collected from patients at time 0-hr, 0.25-hr, 0.5-hr, 1-hr, 2-hr, 4-hr, 8-hr, and 24-hr following each treatment (sildenafil and tadalafil) and each dose (0.5 vs. 1.0 mg/kg). Blood levels were measured with high-performance liquid chromatography-tandem mass spectrometry (NMS Labs).
Patients received 0.5 mg/kg of oral sildenafil or tadalafil on day 1, followed by 1.0 mg/kg of sildenafil or tadalafil on day 2. Patients then crossed over 2 weeks later for the opposite drug. Experiments were performed 1 hour (sildenafil) or 3 hours (tadalafil) after oral treatment to match the experiment with the peak blood level. Patients were queried about potential side-effects throughout the study visit.

## CC(=O)OCC(=O)[C@@]12N=C(C)O[C@@H]1C[C@H]1[C@@H]3CCC4=CC(=O)C=C[C@]4(C)[C@H]3[C@@H](O)C[C@@]12C [deflazacort]
[1]
  effect of chronic background medication on functional sympatholysis / functional ischemia in DMD: neither prednisone nor deflazacort protects dystrophic muscle from functional ischemia

## NCCCC[C@H](N[C@@H](CCc1ccccc1)C(=O)O)C(=O)N1CCC[C@H]1C(=O)O [lisinopril]
[1]
  effect of chronic background medication on functional sympatholysis / functional ischemia in DMD: does not rescue functional sympatholysis

## CCCCc1nc(Cl)c(CO)n1Cc1ccc(-c2ccccc2-c2nn[nH]n2)cc1 [losartan]
[1]
  effect of chronic background medication on functional sympatholysis / functional ischemia in DMD: does not rescue functional sympatholysis

## C[C@]12C=CC(=O)C=C1CC[C@@H]1[C@@H]2C(=O)C[C@@]2(C)[C@H]1CC[C@]2(O)C(=O)CO [prednisone]
[1]
  effect of chronic background medication on functional sympatholysis / functional ischemia in DMD: neither prednisone nor deflazacort protects dystrophic muscle from functional ischemia

## CCCc1nn(C)c2c(=O)[nH]c(-c3cc(S(=O)(=O)N4CCN(C)CC4)ccc3OCC)nc12 [sildenafil]
[1]; 6 patients with DMD, 0.5 and 1.0 mg/kg
  restoration of functional sympatholysis in DMD (in words): equally restores functional sympatholysis
[1]; 0.5 mg/kg oral
  LBNP-induced ΔHbO2+MbO2 (% TLS) at rest: −18±4%
  LBNP-induced ΔHbO2+MbO2 (% TLS) during handgrip: −10±3%
[1]; 1.0 mg/kg oral
  LBNP-induced ΔHbO2+MbO2 (% TLS) at rest: −20±3%
  LBNP-induced ΔHbO2+MbO2 (% TLS) during handgrip: −1±3%
[2]; 0.5 mg/kg, Post-exercise
  BA VC (vascular conductance): 2.3 ± 0.3 ml/min/mmHg
  BA blood flow: 172 ± 18 mL/min
  BA velocity: 32 ± 3
  Heart rate: 88 ± 6
  MAP: 75 ± 2 mmHg
[2]; 0.5 mg/kg, Rest
  BA VC (vascular conductance): 1.7 ± 0.3 ml/min/mmHg
  BA blood flow: 125 ± 19 mL/min
  BA velocity: 24 ± 4
  Heart rate: 84 ± 5
  MAP: 77 ± 6 mmHg
[2]; 1.0 mg/kg, Post-exercise
  BA VC (vascular conductance): 2.7 ± 0.3 ml/min/mmHg
  BA blood flow: 196 ± 22 mL/min
  BA velocity: 37 ± 3
  Heart rate: 93 ± 5
  MAP: 74 ± 2 mmHg
[2]; 1.0 mg/kg, Rest
  BA VC (vascular conductance): 1.9 ± 0.3 ml/min/mmHg
  BA blood flow: 137 ± 21 mL/min
  BA velocity: 27 ± 5
  Heart rate: 92 ± 5
  MAP: 74 ± 2 mmHg
[3]; 0.5 mg/kg
  half-life: 2.4 ± 0.09 h
[3]; 1 mg/kg
  half-life: 3.2 ± 0.5 h
[3]; po
  time after ingestion at which blood level had returned close to baseline: 4 h
[3]; po, 0.5 mg/kg
  peak blood level: 82.5 ± 26.6 ng/mL
[3]; po, 1 mg/kg
  peak blood level: 167.5 ± 34.1 ng/mL
